Results taken from patent US11744837B2, “Use of cortisol in assessment and prophylactic treatment of hypokalemia associated with glucocorticoid receptor modulator treatment of Cushing's syndrome patients” (Corcept Therapeutics, Inc., priority 2018, dated 2023).
Like-named read-outs stand apart in the source and are kept apart here.

Key:
cortisol [1] = test: 24-hour urine cortisol during mifepristone treatment of Cushing's syndrome patients; type: in vivo, human
Method: (§1) Dosing Schedule Dosing was started with 300 mg of mifepristone once per day for 14 days. After 14 days, if no clinical improvement was seen but the drug was well tolerated, the dose of mifepristone was increased to 600 mg once per day. After 4 weeks of dosing at 600 mg once per day, if no clinical improvement was seen but the drug was well tolerated, the dose was increased to 900 mg once per day. Dose escalation was based on weight with the maximum dose no higher than 20 mg/kg/day. […] After 4 weeks of dosing at 900 mg once per day, if no clinical improvement was seen but the drug was well tolerated, the dose was increased to 1200 mg once per day. Study duration was 24 weeks.
(§2) Potassium levels were obtained on every subject at either screening or the pre-drug administration baseline visit, and then also at every scheduled post-baseline visit. Potassium levels post-baseline were therefore obtained as early as day 7 and through day 210 (week 30 was the last visit and was the 6 week follow-up visit). ACTH, and cortisol were measured at six visits (week 2 (day 14), week 6 (day 42), week 10 (day 70), week 16 (day 112), and week 24 (day 168) week 6 follow-up (day 210)).

[2] = tested on: Cushing's syndrome patients; details: in vivo
Method: The risk of experiencing at least one episode of hypokalemia (potassium level <3.5 mEq/L) after 7 to 14 Days of exposure to KORLYM (mifepristone) was evaluated using stepwise multivariable logistic regression and single-variable logistic regression models. The following independent factors were evaluated for potential association with hypokalemia based on the biology of the disease: total cortisol at Day 1, ACTH at Day 1, and potassium level at Day 1.
The risk of experiencing at least one episode of hypokalemia (potassium level <3.5 mmol/L) after 28 Days of exposure to KORLYM was evaluated using stepwise multivariable logistic regression and single-variable logistic regression models. The following independent factors were evaluated for potential association with hypokalemia based on the biology of the disease: total cortisol at Day 1 and Day 14 (cort_01 and cort_14), ACTH at Day 1 and Day 14 (ACTH_01 and ACTH_14), and potassium levels at Day 1 and Day 14 (K_01 and K_14).
Patients were defined to have severe/recurrent hypokalemia for this analysis if they had at least one value of potassium of 2.5 mmol/L or lower, or if they had recurrent hypokalemia (hypokalemia occurring during multiple visits after Day 14 visit).
The Cushing's syndrome study reported herein was conducted in accordance with the Declaration of Helsinki and Good Clinical Practice (GCP) according to International Conference on Harmonization (ICH) guidelines.
as §1
Serum electrolytes, including potassium, were measured regularly throughout the study period.
as §2

[3] = tested on: subjects in an Alzheimer's study; test: Alzheimer's study: hypokalemia; type: in vivo, human
Text: (§3) Clinically meaningful hypokalemia (<3.1) has been reported in 16 of 821 (1.9%) mifepristone treated subjects (12 in completed double blind PMD trials, and 4 in a completed Alzheimer's trial), and in 5 of 626 (0.8%) placebo treated subjects in completed PMD trials.

[4] = tested on: Cushing's syndrome patients; details: cited from earlier work
[5] = tested on: psychotic major depression (PMD) subjects; test: Double blind psychotic major depression (PMD) trials: hypokalemia; type: in vivo, human; details: completed double blind PMD trials
Text: as §3

ACTH = ACTH levels during mifepristone treatment of Cushing's syndrome patients; type: in vivo, human
Text: (§4) The term “measuring the level,” in the context of cortisol, ACTH, mifepristone, or other compounds, refers to determining, detecting, or quantitating the amount, level, or concentration of, for example, cortisol, ACTH, mifepristone, or other compound in a sample obtained from a subject. Plasma or serum samples are often used for measuring ACTH or cortisol level.
(§5) The types of samples that are suitable for ACTH determination can be serum, plasma, saliva, urine, or any other biological fluid taken from a subject. In preferred embodiments, the sample is a serum sample, or is a plasma sample. The level of ACTH can be measured using various methods, including but not limited to, immunoassays, e.g., competitive immunoassay, radioimmunoassay (MA), immunofluorometric enzyme assay, and ELISA; competitive protein-binding assays; liquid chromatography (e.g., HPLC); and mass spectrometry, e.g., high-performance liquid chromatography/triple quadrupole-mass spectrometry (LC-MS/MS). Commercial kits for measuring ACTH are readily available, e.g., from Mayo clinic (Test ID: ACTH), Siemens Healthcare Global (Immulite® 2000 ACTH assay), and Roche Molecular Diagnostics (Catalog No. 03255751190). In preferred embodiments, ACTH levels are measured using a radioimmunoassay (RIA), most preferable a two-site MA, such as performed by Quest Diagnostics (Secaucus, N.J. 07094).
as §1, §2

healthy volunteers = test: Previous clinical studies in healthy volunteers: adverse events; type: in vivo, human
Text: Hypokalemia and rash appear to be more common in subjects receiving mifepristone than in the control groups.

cortisol [6] = test: Total serum cortisol during mifepristone treatment of Cushing's syndrome patients; type: in vivo, human
Text: as §4
as §5, with “cortisol” for “ACTH”, “(LC-MS/MS).” for “(LC-MS/MS). Commercial kits for measuring ACTH are readily available, e.g., from Mayo clinic (Test ID: ACTH), Siemens Healthcare Global (Immulite® 2000 ACTH assay), and Roche Molecular Diagnostics (Catalog No. 03255751190).”, “LC-MS/MS,” for “a radioimmunoassay (RIA), most preferable a two-site MA,”
Dosing Schedule Dosing was started with 300 mg of mifepristone once per day for 14 days. After 14 days, if no clinical improvement was seen but the drug was well tolerated, the dose of mifepristone was increased to 600 mg once per day. After 4 weeks of dosing at 600 mg once per day, if no clinical improvement was seen but the drug was well tolerated, the dose was increased to 900 mg once per day. Dose escalation was based on weight with the maximum dose no higher than 20 mg/kg/day. […]
as §2, with “Potassium levels post-baseline were therefore obtained as early as day 7 and through day 210 (week 30 was the last visit and was the 6 week follow-up visit).” left out

[7] = tested on: mifepristone treated subjects (PMD and Alzheimer's trials); test: Completed PMD and Alzheimer's trials together: clinically meaningful hypokalemia; type: in vivo, human; details: 16 of 821 mifepristone treated subjects
Text: as §3

[8] = patients who did not experience hypokalemia
[9] = 43 subjects with Cushing's disease

Structure (SMILES): CC#C[C@]1(O)CC[C@H]2[C@@H]3CCC4=CC(=O)CCC4=C3[C@@H](c3ccc(N(C)C)cc3)C[C@@]21C [mifepristone, 11β-(4-dimethylaminophenyl)-17β-hydroxy-17α-(1-propynyl)-estra-4,9-dien-3-one]
- 24 Hour Urine Cortisol (nmol/24 hr)/ACTH Ratio Visit Values, Mean ± SD (cortisol [1]; Day 42, Non-Hypokalemic (N 35)): 7.9 ± 6.0 (35)
- 24 Hour Urine Cortisol (nmol/24 hr)/ACTH Ratio Visit Values, Mean ± SD (cortisol [1]; Day 70, Non-Hypokalemic (N 30)): 17.0 ± 32.7 (30)
- 24 Hour Urine Cortisol (nmol/24 hr)/ACTH Ratio Visit Values, Mean ± SD (cortisol [1]; Day 112, Non-Hypokalemic (N 23)): 9.6 ± 16.3 (23)
- ratios of 24-hour urine cortisol values divided by ACTH values (cortisol [1]; patients experiencing hypokalemia): greater than 20
- ratios of 24-hour urine cortisol values divided by ACTH values (cortisol [1]; [8]): less than 20
- 24 hour urine cortisol levels (cortisol [1]; patients who did not experience hypokalemia, at all times during mifepristone treatment): below 1700 nmol/24 hr
- 24-hour urine cortisol levels (cortisol [1]; patients who experienced hypokalemia): above 2000 nmol/24 hr
- change in 24-hour urine cortisol levels as compared to baseline (cortisol [1]; patients who experienced hypokalemia, day 42): greater than 600 nmol/24 hr
- Severe/Recurrent Hypokalemia ([2]; both, human): 9 (20.0) n (%)
- developed hypokalemia on or after Day 28 ([2]; both, human): 6.7%
- developed severe/recurrent hypokalemia on or after Day 28 ([2]; both, human): 6.7%
- subjects with a Potassium value ≤3.5 mmol/L at any of the six visits ([2]; both, human): 21
- subjects with a Potassium value ≤3.5 mmol/L at any post-baseline visit ([2]; both, human): 23
- Number with Hypokalemia (%) (Potassium ≤ 3.4 mEq/L) ([2]; both, human, 6 weeks): 7 (14%)
- Number with Hypokalemia (%) (Potassium ≤ 3.4 mEq/L) ([2]; both, human, 8 weeks): 4 (8%)
- Number with Hypokalemia (%) (Potassium ≤ 3.4 mEq/L) ([2]; both, human, 10 weeks): 4 (8%)
- Number with Hypokalemia (%) (Potassium ≤ 3.4 mEq/L) ([2]; both, human, 12 weeks): 3 (6%)
- Number with Severe Hypokalemia (%) (Potassium ≤ 2.5 mEq/L) ([2]; both, human, 12 weeks): 1 (2%)
- Number with Hypokalemia (%) (Potassium ≤ 3.4 mEq/L) ([2]; both, human, 16 weeks): 5 (10%)
- Number with Severe Hypokalemia (%) (Potassium ≤ 2.5 mEq/L) ([2]; both, human, 16 weeks): 1 (2%)
- Number with Hypokalemia (%) (Potassium ≤ 3.4 mEq/L) ([2]; both, human, 20 weeks): 1 (2%)
- Decreased potassium observed during at least one visit ([2]; both, human, 24 weeks): about 30%
- Number with Hypokalemia (%) (Potassium ≤ 3.4 mEq/L) ([2]; both, human, 24 weeks): 4 (8%)
- developed hypokalemia after dosing with KORLYM ([2]; both, human, 24 weeks): 42.9%
- Number with Hypokalemia (%) (Potassium ≤ 3.4 mEq/L) ([2]; both, human, 30 weeks): 3 (6%)
- Number with Severe Hypokalemia (%) (Potassium ≤ 2.5 mEq/L) ([2]; both, human, 30 weeks): 1 (2%)
- Number with Hypokalemia (%) (Potassium ≤ 3.4 mEq/L) ([2]; both, human, 1 day): 2 (4%)
- Number with Hypokalemia (%) (Potassium ≤ 3.4 mEq/L) ([2]; both, human, 7 day): 2 (4%)
- Number with Hypokalemia (%) (Potassium ≤ 3.4 mEq/L) ([2]; both, human, 14 day): 8 (16%)
- Number with Severe Hypokalemia (%) (Potassium ≤ 2.5 mEq/L) ([2]; both, human, 14 day): 1 (2%)
- share of subjects with a Potassium value ≤3.5 mmol/L as early as day 14, all post-baseline values ([2]; both, human, 14 days): 48%
- share of those subjects with a Potassium value ≤3.5 mmol/L as early as day 14 ([2]; both, human, 14 days): 38%
- Number with Hypokalemia (%) (Potassium ≤ 3.4 mEq/L) ([2]; both, human, 28 day): 10 (20%)
- Number of Subjects Hypokalemic <=3.5 mmol/L ([2]; both, human, 210 day): 3
- Number of Subjects Non-Hypokalemic >3.5 mmol/L ([2]; both, human, 210 day): 37
- patients with at least one potassium value of 2.5 mmol/L or lower [2]: two
- severity of hypokalemia [2]: generally mild to moderate
- subjects with a day 7 Potassium value ≤3.5 mmol/L [2]: three
- subjects with clinically meaningful hypokalemia (<3.1) ([3]; completed Alzheimer's trial): 4
- subjects with hypokalemia in the range of 2.8 to 3.5 mEq/L ([3]; out of 33 subjects, 300 mg per day of mifepristone for 16 weeks): 9
- patients with serum potassium levels less than 3.5 mEq/L ([4]; of 43 Cushing's syndrome patients treated with mifepristone): 22
- patients with serum potassium levels less than 2.5 mEq/L (severe hypokalemia) ([4]; of the 22 of 43 patients with potassium <3.5 mEq/L): 3
- subjects with clinically meaningful hypokalemia (<3.1) [5]: 12
- change of ACTH during mifepristone treatment (ACTH; [9]): increased about two-fold
- Ratio of ACTH Visit Change Values from Baseline per Baseline (ACTH_CHG/ACTH Baseline), Mean ± SD (ACTH; Day 42, Hypokalemic (N 6)): 2.50 ± 0.61 (6)
- Ratio of ACTH Visit Change Values from Baseline per Baseline (ACTH_CHG/ACTH Baseline), Mean ± SD (ACTH; Day 168, Hypokalemic (N 5)): 3.30 ± 2.54 (5)
- rise of ACTH levels following an initial increase in mifepristone dose (FIG. 1) (ACTH; [8]): about 25 pg/mL
- frequently reported adverse events (healthy volunteers; mifepristone administered to healthy volunteers): headache, gastrointestinal symptoms including diarrhea, nausea and vomiting, and rash
- Hypokalemia and rash compared with the control groups (healthy volunteers; subjects receiving mifepristone): more common
- change of serum cortisol during mifepristone treatment (cortisol [6]; [9]): increased to a smaller degree
- total serum cortisol levels (cortisol [6]; patients who did not experience hypokalemia, early on during mifepristone treatment (e.g., day 14 and/or day 42)): below 1000 nmol/L
- total serum cortisol levels (cortisol [6]; patients who experienced hypokalemia, early on during mifepristone treatment (e.g., day 14 and day 42)): above 1000 nmol/L
- Clinically meaningful hypokalemia (<3.1) [7]: 1.9%
